# US20240390301A1, “COMBINATIONS OF PERIPHERAL 5-HT2A RECEPTOR ANTAGONISTS AND CENTRAL 5-HT2A RECEPTOR AGONISTS” (priority 2021, published 2024)
# Like-named read-outs stand apart in the source and are kept apart here.
# Tests used:
# 5-HT2A receptor = biological target: T1, 5-HT2A receptor (Homo sapiens, UniProt P28223); test: 5-HT2A radioligand binding with [3H]ketanserin
# T1 construct: WuXi AppTec (Hong Kong) Limited (contract laboratory that ran the assay)
# Procedure: The binding affinities of key peripheral 5-HT2A receptor antagonists, as well as reference 5-HT2A agonists, at the ketanserin binding site of the 5-HT2A receptor and the mesulergine binding site of the 5-HT2C receptor were determined in radioligand binding experiments.
# Method. Affinity of the test compounds for the 5-HT2A and 5-HT2C receptors was determined in radioligand binding experiments with [^3H] ketanserin and [^3H] mesulergine, respectively, by WuXi AppTec (Hong Kong) Limited, using methods adapted from the literature and under conditions described in Table 1.
# 5-HT2C receptor = biological target: T2, 5-HT2C receptor (Homo sapiens, UniProt P28335); test: biochemical; format: binding
# T2 construct: WuXi AppTec (Hong Kong) Limited (contract laboratory that ran the assay)
# T2 sequence (P28335 33-458): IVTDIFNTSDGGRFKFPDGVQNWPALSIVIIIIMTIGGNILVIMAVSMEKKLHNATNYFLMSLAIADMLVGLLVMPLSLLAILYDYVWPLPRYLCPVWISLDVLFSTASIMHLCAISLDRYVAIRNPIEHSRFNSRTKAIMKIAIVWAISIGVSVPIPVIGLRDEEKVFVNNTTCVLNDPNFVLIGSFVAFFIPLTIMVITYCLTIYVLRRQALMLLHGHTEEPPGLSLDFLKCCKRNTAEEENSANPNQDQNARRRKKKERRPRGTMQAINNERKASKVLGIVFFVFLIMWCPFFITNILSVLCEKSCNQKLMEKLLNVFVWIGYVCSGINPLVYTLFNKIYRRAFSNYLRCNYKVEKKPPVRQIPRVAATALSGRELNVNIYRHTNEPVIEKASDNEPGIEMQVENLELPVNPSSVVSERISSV
# [1] = Method 2: 3 times diluted homogenate, 37° C.
# Procedure: Method 1. Pooled frozen rat brain homogenate was thawed in a water bath at 37° C. prior to the experiment. Using an Apricot automation workstation, 98 μL/well of blank brain homogenate or 100 mM PBS were added to all 96-well reaction plates (Blank, T0, T10, T30, T60, and T120). […] All reaction plates containing mixtures of compound and brain homogenate were incubated at 37° C. in a water bath for up to 120 minutes. At the end of incubation, 500 uL of stop solution (200 ng/mL tolbutamide and 200 ng/mL labetalol in ACN) was added to precipitate protein and mixed thoroughly for 20 minutes at 4° C. After centrifugation at 4,000 rpm and 4° C. for 20 minutes, an Apricot automation workstation was used to transfer 150 μL of supernatant from each reaction plate to its corresponding bioanaylsis plate, which was shaken for 10 minutes prior to LC-MS/MS analysis.
# Method 2. Rat brain tissue homogenate samples were prepared by diluting one volume of whole rat brain tissue with two volumes of dialysis buffer (phosphate buffered saline pH 7.4-0.1 M sodium phosphate and 0.15 M sodium chloride) to yield 3 times diluted homogenate. Test compounds were spiked into 400 μL aliquots (n=3) of rat brain homogenate and the resulting mixtures were incubated at 37° C. […] An aliquot (100 μL) of each sample was transferred to a 96-well deep plate and analyzed by LC-MS/MS.
# in vitro [2] = test: in vitro; design: fraction unbound at 4 h: dose or concentration left out as unconfirmed; details: rat, brain homogenate
# Procedure: Various putative peripheral 5-HT2A receptor antagonists were tested for binding to rat brain homogenate via equilibrium dialysis, with the results summarized in Table 7.
# Method 1. Rat brain homogenate was thawed in a water bath at room temperature and then incubated at 37° C. for 10 min before use. Aliquots of 50 μL of loading matrix containing test compound (2 μM final incubation concentration) or control compound in triplicate were transferred to a Sample Collection Plate. The samples were matched with opposite blank buffer to obtain a final volume of 100 μL with a volume ratio of matrix: Dialysis Buffer of 1:1 (v:v) in each well. The stop solution (200 ng/mL tolbutamide and 200 ng/ml labetalol in ACN) was immediately added to these T0 samples of test compound and control compound. The plate was sealed and shaken at 800 rpm for 10 min. T0 samples were stored at 2-8° C. pending further processing along with other post-dialysis samples. An aliquot of 100 μL of the loading matrix containing test compound or control compound was transferred to the donor side of each dialysis well in triplicate and 100 μL of the Dialysis Buffer was loaded to the receiver side of the well. Then the plate was rotated at approximately 100 rpm in a humidified incubator with 5% CO2 at 37±1° C. for 4 hours. At the end of the dialysis. aliquots of 50 μL from the buffer side and matrix side of the dialysis device were taken into new 96-well plates (Sample Collection Plates). An equal volume of opposite blank matrix (buffer or matrix) in each sample was added to reach a final volume of 100 μL, with a volume ratio of matrix: Dialysis Buffer of 1:1 (v:v) in each well. All samples were further processed by protein precipitation before LC-MS/MS analysis.
# Method 2. Aliquots (200 μL) of test compounds and positive controls at […] in rat brain homogenate (triplicates) were added to the rapid equilibrium dialysis (RED) chamber of dialysis inserts. A 350 μL aliquot of dialysis buffer was added to the buffer chamber of the inserts. After sealing the RED device with an adhesive film, dialysis was conducted at 37° C. with shaking at 100 RPM for 4 hours. Following dialysis, an aliquot of 50 μL was removed from each well (brain homogenate and buffer) and diluted with an equal volume of opposite matrix to nullify the matrix effect. Similarly, buffer was added to recovery and stability samples. An aliquot of 100 μL was used for LC-MS/MS analysis following protein precipitation with ACN containing internal standard.
# in vitro [3] = test: in vitro
# Procedure: Method 1. Aliquots of 50 μL loading matrix containing test compound (2 μM final incubation concentration) or control compound in triplicate were transferred to a Sample Collection Plate. The samples were matched with opposite blank buffer to obtain a final volume of 100 μL, with a volume ratio of matrix: Dialysis Buffer of 1:1 (v:v) in each well. Stop solution (200 ng/ml tolbutamide and 200 ng/mL labetalol in ACN) was added to these TO samples of test compound and control compound. The plate was sealed and shaken at 800 rpm for 10 min. An aliquot of 100 μL of the loading matrix containing test compound or control compound was transferred to the donor side of each dialysis well in triplicate and 100 μL of the Dialysis Buffer was loaded to the receiver side of the well. Then the plate was rotated at approximately 100 rpm in a humidified incubator with 5% CO2 at 37±1° C. for 4 hours. At the end of the dialysis, aliquots of 50 μL samples from the buffer side and matrix side of the dialysis device were taken into new 96-well plates (Sample Collection Plates). An equal volume of opposite blank matrix (buffer or matrix) in each sample was added to reach a final volume of 100 μL, with volume ratio of matrix: Dialysis Buffer of 1:1 (v:v) in each well. All samples were further processed by protein precipitation before LC-MS/MS analysis.
# Method 2. Aliquots (200 μL) of positive controls and test compounds at 5 μM (triplicates) were separately added to the plasma chamber and […] of phosphate buffered saline (pH 7.4) was added to the buffer chamber of the inserts. After sealing the rapid equilibrium dialysis (RED) device with an adhesive film, dialysis was performed in an incubator at 37° C. with shaking at 100 RPM for 4 hours. Aliquots (50 μL) of warfarin and test compounds were added to four 0.5 mL micro fuse tubes. Two aliquots were frozen immediately (0-minute sample). The other two aliquots were incubated at 37° C. for 4 hours along with the RED device. Following dialysis, an aliquot of 50 μL was removed from each well (both plasma and buffer side) and diluted with an equal volume of opposite matrix (dialyzed with the other matrix) to nullify the matrix effect. Similarly, 50 μL of buffer was added to recovery and stability samples. An aliquot of 100 μL was used for LC-MS/MS analysis following protein precipitation with ACN containing internal standard.
# in vivo [4] = details: metabolite after 10 mg/kg SC of parent (sarpogrelate or Compound 14a)
# Procedure: The pharmacokinetics of peripheral 5-HT2A antagonists were studied in the plasma (Tables 11 and 12) and brains (Table 13 and 14) of rats after subcutaneous (SC) dosing. The results were used to interpret the in vivo pharmacological results.
# Animals. Male Sprague Dawley rats, aged 8-12 weeks. were used in these studies. Four rats were housed in each cage. […] Temperature and humidity were recorded by an auto-controlled data logger system. All animals were provided laboratory rodent diet and were fasted for 4 h pre-dose and 2 h post-dose. Reverse osmosis water treated with ultraviolet light was provided ad libitum. Animals were randomly assigned to treatment groups.
# Drugs and Drug Administration. Test compounds were prepared as described above or commercially obtained. They were administered subcutaneously (SC) at a dose of 1 or 10 mg/kg (as indicated, calculated based on the free base) and at a volume of 5 mL/kg body weight.
# Sample Collection and Bioanalysis. […] SC. […] For both studies, immediately after blood collection, plasma was harvested by centrifugation at 4,000 rpm for 10 min at 4° C. and samples were stored at −70±10° C. until bioanalysis. Following blood collection, animals were immediately sacrificed, the abdominal vena-cava was cut open, and the whole body was perfused from the heart using 10 mL of normal saline, and brain samples were collected from all animals. After isolation, brain samples were rinsed three times in ice-cold normal saline (for 5-10 seconds/rinse using ˜5-10 mL normal saline in disposable petri dish for each rinse) and dried on blotting paper. Brain samples were homogenized using ice-cold phosphate-buffered saline (pH 7.4). Total homogenate volume was three times the tissue weight. All homogenates were stored at −70±10° C. until bioanalysis. For bioanalysis, 25 μL aliquots of plasma/brain study samples or spiked plasma/brain calibration standards were added to individual pre-labeled micro-centrifuge tubes followed by 100 μL of an internal standard solution (glipizide, 500 ng/ml in acetonitrile) except for blanks, where 100 μL of acetonitrile was added. Samples were vortexed for 5 minutes and then centrifuged for 10 minutes at 4,000 rpm at 4° C. Following centrifugation, 100 μL of each clear supernatant was transferred to a 96-well plate and analyzed with a fit-for-purpose LC-MS/MS method, with authentic samples of each analyte used for calibration and identification.
# Rat plasma stability = format: in vitro ADME; details: Method 2: 5 μM, 37° C.
# Procedure: The results were used to confirm that the plasma protein binding results were not confounded by poor plasma stability.
# Method 1. […] Plasma was centrifuged at 4,000 rpm for 5 min and any clots were remove.
# Method 2. […]
# in vivo [5] = format: in vivo, rat
# Procedure: The ratio of free brain concentration to free plasma concentration was calculated at 0.167 h and 0.5 h post administration for each compound using the data presented in the above examples and the following formula.
# A smaller value for the free brain: free plasma ratio indicates greater peripheral restriction and therefore, better suitability for the methods of the present disclosure.
# [6] = HEK293 stable cell line, 2 nM [3H]mesulergine, 1 h, 25° C., read-out: 5-HT2C Ki (nM) ([3H]mesulergine)
# [7] = HEK293 stable cell line, 1 nM [3H]ketanserin, 1 h, 25° C., read-out: 5-HT2A Ki (nM) ([3H]ketanserin)
# [8] = 10 mg/kg PK data, quantified as metabolite in PK studies of sarpogrelate and Compound 14a
# T1 sequence (P28223 whole entry): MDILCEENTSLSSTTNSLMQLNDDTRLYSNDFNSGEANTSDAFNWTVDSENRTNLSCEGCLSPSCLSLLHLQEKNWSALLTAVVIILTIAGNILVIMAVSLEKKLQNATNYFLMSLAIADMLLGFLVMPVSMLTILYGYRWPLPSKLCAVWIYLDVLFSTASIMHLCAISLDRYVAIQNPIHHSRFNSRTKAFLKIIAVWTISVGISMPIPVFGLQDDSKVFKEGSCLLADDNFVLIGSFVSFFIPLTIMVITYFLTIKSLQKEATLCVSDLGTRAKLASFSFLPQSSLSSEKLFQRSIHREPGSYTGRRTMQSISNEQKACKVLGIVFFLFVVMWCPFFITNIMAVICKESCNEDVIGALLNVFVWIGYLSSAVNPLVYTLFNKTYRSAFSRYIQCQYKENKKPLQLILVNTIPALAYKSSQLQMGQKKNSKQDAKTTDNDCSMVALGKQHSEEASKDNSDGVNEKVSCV
smiles,measurement,setting,value
"CCN(C)CCc1c[nH]c2cccc(O)c12 [Compound 4-HO-MET, 4-hydroxy-N-methyl-N-ethyltryptamine]",Ki,5-HT2A receptor,106 nM
"CCN(C)CCc1c[nH]c2ccc(F)cc12 [Compound 5-F-MET, 5-fluoro-N-methyl-N-ethyltryptamine]",Ki,5-HT2C receptor; [6],59 nM
same,Ki,5-HT2A receptor,140 nM
"CC(C)COc1ccc(CNC(=O)N(Cc2ccc(F)cc2)C2CCNCC2)cc1.Cl [Compound 7, 1-(4-fluorobenzyl)-3-(4-isobutoxybenzyl)-1-(piperidin-4-yl)urea hydrochloride]","% Remaining (120 minutes), rat brain homogenate",[1],69%
same,fraction unbound at 4 h,in vitro [2],0.002
same,"fraction unbound at 4 h, 5 μM","in vitro [3]; rat, plasma, pH 7.4",0.038
same,"Mean brain concentration 0.167 h (ng/g), analyzed as metabolite",in vivo [4]; 0.167 h,BLQ
same,"Mean brain concentration 0.5 h (ng/g), analyzed as metabolite",in vivo [4]; 0.5 h,BLQ
same,"% Remaining (120 minutes), rat plasma",Rat plasma stability,96%
"COc1cc(CC(C)N)c(OC)cc1I (stereo not drawn) [DOI, 4-iodo-2,5-dimethoxyamphetamine]",Ki,5-HT2C receptor,70 nM
"CCCc1cc(OC)c(CC(C)N)cc1OC (stereo not drawn) [DOPR, 2,5-dimethoxy-4-propylamphetamine]",Ki,5-HT2C receptor; [6],16.6 nM
same,Ki,5-HT2A receptor; [7],17.6 nM
COc1cc(CCN)cc(OC)c1OC [mescaline],Ki,5-HT2C receptor; [6],> 1880 nM
same,Ki,5-HT2A receptor; [7],17400 nM
COc1cccc(CCc2ccccc2OCC(O)CN(C)C)c1 (stereo not drawn) [sarpogrelate M1],"% Remaining (120 minutes), rat brain homogenate",[1],84%
same,Mean % bound (rat plasma protein binding),"in vitro [3]; Method 2: RED, 5 μM, 4 hours, 37° C.",97.2%
same,"Mean brain concentration 0.167 h (ng/g), analyzed as metabolite",in vivo [4]; 0.167 h,32.7 ng/g
same,"Mean brain concentration 0.5 h (ng/g), analyzed as metabolite",in vivo [4]; 0.5 h,97.4 ng/g
same,"Mean plasma concentration 0.167 h (ng/mL), analyzed as metabolite","in vivo [4]; plasma, 0.167 h",54.1 ng/mL
same,"Mean plasma concentration 0.5 h (ng/mL), analyzed as metabolite","in vivo [4]; plasma, 0.5 h",63.6 ng/mL
same,"% Remaining (120 minutes), rat plasma",Rat plasma stability,94%
same,"Free Brain:Free Plasma (0.167 h), metabolite",in vivo [5]; [8],0.52
same,"Free Brain:Free Plasma (0.5 h), metabolite",in vivo [5]; [8],1.31
same,Peripheral restriction / brain penetration,in vivo [5]; from free brain:free plasma ratios,substantial brain penetration
